Results taken from PMC12223813, “Antiproliferative and Trypanocidal Activity of Ivermectin Bioconjugates” (ACS Omega, 2025).
Read-outs that look alike come from different tables or passages of the source.

Assays:
[1] = system: human promyelocytic leukemia HL-60 cells; assay: Cytotoxic activity, resazurin cell viability assay; assay type: cell-based; conditions: 72 h total (24 h + 48 h with resazurin), mean ± SD of three independent experiments
Procedure: (§1) The trypanocidal and cytotoxic activities of the newly synthesized IVR bioconjugates and their conjugation partners were determined for bloodstream forms of T. brucei brucei and human myeloid HL-60 cells in vitro using the resazurin cell viability assay as previously described.
(§2) Test compounds were assayed at 10-fold dilutions ranging from 100 μM to 1 nM in the presence of 0.9% DMSO. Controls were grown in the culture medium containing only 0.9% DMSO. The assays were cultured in an incubator at 37 °C in a humidified atmosphere containing 5% CO2. After 24 h incubation, 20 μL of 0.5 mM resazurin (prepared in sterile PBS) was added, and the cultures were grown for another 48 h. Then, the proliferation of the cells was determined by measuring the absorbance at 570 nm (test wavelength) and 630 nm (reference wavelength) using a microplate reader.

[2] = system: bloodstream forms of T. b. brucei (427-221a clone); assay: microbe, parasite or virus in culture; conditions: for GI50: Trypanosoma brucei, 72 h, read-out: T. brucei GI50, bloodstream forms, 72 h total (24 h + 48 h with resazurin), mean ± SD of three independent experiments
Procedure: as §1, §2

[3] = system: HaCaT, human immortalized keratinocyte cell line; assay: Cytotoxicity toward normal cells, MTT assay; assay type: cell-based; conditions: 72 h, mean ± SD
Procedure: (§3) Additionally, to assess the selectivity of these compounds toward cancer cells, we included an immortalized keratinocyte cell line from adult human skin (HaCaT) in the antiproliferative activity tests. Doxorubicin served as the reference anticancer drug.
(§4) The culture media were enriched with 10% fetal bovine serum (FBS, Sigma-Aldrich, St. Louis, MO, USA), 20 mM HEPES (Biowest, Nuaillé, France), and antibiotics (100 U/mL penicillin and 100 μg/mL streptomycin) obtained from Gibco (Grand Island, NY, USA). The cells were maintained in a humidified incubator at 37 °C with 5% CO2 until they reached 80–90% confluence, after which they were used for further experiments.
(§5) To assess the cytotoxicity, the cells (0.5 × 10^4/well) were plated in 96-well plates and allowed to adhere for 24 h. The MTT (3-(4,5-dimethylthiazol-2-yl)-2,5-diphenyltetrazolium bromide) assay was used to evaluate the cytotoxic effects of IVR bioconjugates on all tested cell lines. After 24 h incubation, cells were exposed to varying concentrations (1 to 100 μM) of the test compounds for 72 h. Following the treatment, the medium was discarded, and a 0.5 mg mL^–1 MTT solution was added to each well and incubation was continued for another 4 h. Mitochondrial enzyme activity facilitated the formation of formazan crystals, which were subsequently dissolved in DMSO-isopropanol (1:1, v/v), producing a violet-colored solution. A 100 μL aliquot of this solution was transferred to the well, and absorbance was recorded at 570 nm using a MultiscanGo spectrophotometer (ThermoFisher Scientific, Carlsbad, CA, USA).
(§6) Cytotoxicity was quantified by comparing the absorbance of the treated cells to that of untreated controls using the formula: [A]/[B] × 100, where [A] represents the absorbance of the treated sample and [B] corresponds to the absorbance of the control sample. A decrease in MTT levels reflects a decrease in cell viability.

[4] = system: HCT-116, human primary colon cancer cell line; assay: Antiproliferative activity, MTT assay; assay type: cell-based; conditions: for IC50: Homo sapiens, HCT-116, 72 h, MTT, mean ± SD; for HCT-116 SI: SI = IC50 HaCaT/IC50 HCT-116
Procedure: as §3, §4, §5, §6

[5] = system: PC3, human metastatic prostate cancer cell line; assay: Antiproliferative activity, MTT assay; assay type: cell-based; conditions: for IC50: Homo sapiens, 72 h, MTT, mean ± SD; for PC3 SI: SI = IC50 HaCaT/IC50 PC3
Procedure: as §3, §4, §5, §6

[6] = system: MDA-MB-231, human triple-negative breast cancer cell line; assay: Antiproliferative activity, MTT assay; assay type: cell-based; conditions: for IC50: Homo sapiens, MDA-MB-231, 72 h, MTT, mean ± SD; for MDA-MB-231 SI: SI = IC50 HaCaT/IC50 MDA-MB-231
Procedure: as §3, §4, §5, §6

[7] = system: A549, human lung cancer cell line; assay: Antiproliferative activity, MTT assay; assay type: cell-based; conditions: for IC50: Homo sapiens, A549, 72 h, MTT, mean ± SD; for A549 SI: SI = IC50 HaCaT/IC50 A549
Procedure: as §3, §4, §5, §6

| SMILES | GI50 [1] | selectivity GI50 ratio ([2]; GI50(HL-60)/GI50(T. brucei)) | GI50 [2] | IC50 [3] | IC50 [4] | HCT-116 SI [4] | IC50 [5] | PC3 SI [5] | IC50 [6] | MDA-MB-231 SI [6] | IC50 [7] | A549 SI [7] | selectivity GI50 ratio [2] |
| --- | --- | --- | --- | --- | --- | --- | --- | --- | --- | --- | --- | --- | --- |
| C[C@H]1[C@H](OC(=O)CCC(=O)O)O[C@@H]2O[C@@]3(C)CC[C@H]4[C@H](C)CC[C@@H]1[C@@]24OO3 [artesunate, reference compound] | 30.8 ± 9 µM | 8.6 | 3.6 ± 0.2 µM | 5.7 ± 0.1 µM | 37.8 ± 4.2 µM | 0.2 | 48.5 ± 5.7 µM | 0.1 | 12.6 ± 3.9 µM | 0.5 | 24 ± 6.9 µM | 0.2 |  |
| Cc1cn([C@H]2C[C@H](N=[N+]=[N-])[C@@H](CO)O2)c(=O)[nH]c1=O [azidothymidine, reference compound] | > 100 µM | >5.2 | > 10 µM | > 100 µM | 60.2 ± 9.7 µM | >1.7 | 64.3 ± 3.7 µM | >1.6 | 52.2 ± 4.1 µM | >1.9 | 72.1 ± 11.6 µM | >1.4 |  |
| C=C(C)[C@@H]1CC[C@]2(C(=O)O)CC[C@]3(C)[C@H](CC[C@@H]4[C@@]5(C)CC[C@H](O)C(C)(C)[C@@H]5CC[C@]43C)[C@@H]12 [betulinic acid, reference compound] | 42.5 ± 2.5 µM | 2.8 | 15.4 ± 4.4 µM | > 100 µM | 80.1 ± 6.1 µM | >1.2 | 66.6 ± 2.3 µM | >1.5 | 46.5 ± 4.6 µM | >2.2 | 98.1 ± 3.1 µM | >1.0 |  |
| C=C[C@H]1CN2CC[C@H]1C[C@H]2[C@H](O)c1ccnc2ccccc12 [cinchonidine, reference compound] | > 100 µM | >47.6 | 2.1 ± 0.6 µM | > 100 µM | 87.1 ± 12.1 µM | >1.1 | 86.7 ± 3.9 µM | >1.2 | > 100 µM | ∼1.0 | > 100 µM | ∼1.0 |  |
| C=C[C@H]1C[N@@]2CC[C@H]1C[C@@H]2[C@@H](O)c1ccnc2ccccc12 [cinchonine, reference compound] | > 100 µM | >58.8 | 1.7 ± 0.6 µM | > 100 µM | 78.2 ± 5.8 µM | >1.3 | 74.3 ± 5.4 µM | >1.3 | 65.3 ± 2.8 µM | >1.5 | > 100 µM | ∼1.0 |  |
| CC[C@H](C)[C@H]1O[C@]2(CC[C@@H]1C)C[C@@H]1C[C@@H](C/C=C(\C)[C@@H](O[C@H]3C[C@H](OC)[C@@H](O[C@H]4C[C@H](OC)[C@@H](O)[C@H](C)O4)[C@H](C)O3)[C@@H](C)/C=C/C=C3\CO[C@@H]4[C@H](O)C(C)=C[C@@H](C(=O)O1)[C@]34O)O2 [compound 1, Ivermectin] | 30 ± 1.1 µM |  |  | 12.6 ± 4.3 µM | 9.9 ± 1.1 µM | 1.3 | 33.9 ± 6.3 µM | 0.4 | 8.7 ± 3.2 µM | 1.4 | 7.2 ± 1.4 µM | 1.8 | 10.3 |
| C=C[C@H]1CN2CC[C@H]1C[C@@H]2[C@@H](OC(=O)O[C@@H]1/C(C)=C/C[C@@H]2C[C@@H](C[C@]3(CC[C@H](C)[C@@H]([C@@H](C)CC)O3)O2)OC(=O)[C@@H]2C=C(C)[C@@H](O)[C@H]3OC/C(=C\C=C\[C@@H]1C)[C@]32O)c1ccnc2ccc(OC)cc12 [compound 5, Ivermectin–Quinidine Conjugate] | 22.9 ± 11.2 µM | 17.6 | 1.3 ± 0.4 µM | 14.9 ± 1.6 µM | 13.8 ± 3.5 µM | 1.1 | 12.4 ± 2.1 µM | 1.2 | 10.1 ± 1.4 µM | 1.5 | 42.3 ± 0.5 µM | 0.4 |  |
| C=C[C@H]1CN2CC[C@H]1C[C@H]2[C@H](OC(=O)O[C@@H]1/C(C)=C/C[C@@H]2C[C@@H](C[C@]3(CC[C@H](C)[C@@H]([C@@H](C)CC)O3)O2)OC(=O)[C@@H]2C=C(C)[C@@H](O)[C@H]3OC/C(=C\C=C\[C@@H]1C)[C@]32O)c1ccnc2ccccc12 [compound 7, Ivermectin–Cinchonidine Conjugate] | 47.2 ± 3.7 µM | 20.5 | 2.3 ± 0.3 µM | 50.3 ± 4.9 µM | 20.1 ± 3.7 µM | 2.5 | 7.2 ± 3.8 µM | 7.0 | 22.4 ± 1.2 µM | 2.2 | 13.6 ± 1.1 µM | 3.7 |  |
| CC[C@H](C)[C@H]1O[C@]2(CC[C@@H]1C)C[C@@H]1C[C@@H](C/C=C(\C)[C@@H](OC(=O)N[C@H]3CCc4cc(OC)c(OC)c(OC)c4-c4ccc(SC)c(=O)cc43)[C@@H](C)/C=C/C=C3\CO[C@@H]4[C@H](O)C(C)=C[C@@H](C(=O)O1)[C@]34O)O2 [compound 8] | 10.1 ± 4.9 µM | 7.2 | 1.4 ± 0.5 µM | > 100 µM | 7.5 ± 1.6 µM | >13.3 | 85.1 ± 9.8 µM | >1.2 | 6.6 ± 0.6 µM | >15.2 | 12.4 ± 2.6 µM | >8.1 |  |
| CCC(C)C1OC2(CCC1C)CC1CC(CC=C(C)C(OC(=O)OCC3OC(n4cc(C)c(=O)[nH]c4=O)CC3N=[N+]=[N-])C(C)C=CC=C3COC4C(O)C(C)=CC(C(=O)O1)C34O)O2 (stereo not shown) [compound 11, Ivermectin–Azidothymidine Conjugate] | 11.1 ± 4.1 µM | 5.6 |  | 26.1 ± 3.3 µM | 7.7 ± 3.1 µM | 3.4 | 8.1 ± 3.2 µM | 3.2 | 12.5 ± 1.5 µM | 2.1 | 8.2 ± 1.9 µM | 3.2 |  |
| C=C(C)C1CCC2(C(=O)OCc3cn(CC(=O)OC4C(C)=CCC5CC(CC6(CCC(C)C(C(C)CC)O6)O5)OC(=O)C5C=C(C)C(O)C6OCC(=CC=CC4C)C56O)nn3)CCC3(C)C(CCC4C5(C)CCC(O)C(C)(C)C5CCC43C)C12 (stereo not shown) [compound 15, Ivermectin–Betulinic Acid Conjugate] | > 100 µM | >4.6 | 21.9 ± 2.1 µM | > 100 µM | 70.1 ± 6.4 µM | >1.4 | 93.9 ± 6.4 µM | >1.1 | > 100 µM | ∼1.0 | > 100 µM | ∼1.0 |  |
| COc1cccc2c1C(=O)c1c(O)c3c(c(O)c1C2=O)C[C@@](O)(C(=O)CO)C[C@@H]3O[C@H]1C[C@H](N)[C@H](O)[C@H](C)O1 [doxorubicin, reference compound] |  |  |  | 0.29 ± 0.1 µM | 0.6 ± 0.02 µM |  | 0.6 ± 0.02 µM |  | 1.83 ± 0.1 µM |  | 0.63 ± 0.2 µM |  |  |
| CC[n+]1c(-c2ccccc2)c2cc(N)ccc2c2ccc(N)cc21 [ethidium bromide, reference compound] | 9.3 ± 2.6 µM | 202 |  |  |  |  |  |  |  |  |  |  |  |
| O=c1[nH]c(=O)n([C@H]2C[C@H](O)[C@@H](CO)O2)cc1F [floxuridine, reference compound] | > 100 µM | >45.5 | 2.2 ± 0.4 µM | 24.3 ± 7.3 µM | 11.7 ± 4.2 µM | 2.1 | 15.7 ± 3.3 µM | 1.5 | 22.2 ± 3.4 µM | 1.1 | 26.4 ± 3.8 µM | 0.9 |  |
| Cc1ccc(C(=O)Nc2ccc(S(=O)(=O)O)c3cc(S(=O)(=O)O)cc(S(=O)(=O)O)c23)cc1NC(=O)c1cccc(NC(=O)Nc2cccc(C(=O)Nc3cc(C(=O)Nc4ccc(S(=O)(=O)O)c5cc(S(=O)(=O)O)cc(S(=O)(=O)O)c45)ccc3C)c2)c1 [suramin, reference compound] | > 100 µM |  | 0.039 ± 0.004 µM |  |  |  |  |  |  |  |  |  |  |
